Measurements as given in the NIST ThermoML archive (doi:10.1021/je060137q).
Numbers after ± are expanded uncertainties.

Columns and labels:
[1] = for surface tension liquid-gas: Pendant drop shape; for mass density: 101 kPa, Liquid
[2] = xn = mol fraction of the nth substance listed; conditions: for surface tension liquid-gas: Pendant drop shape; for mass density: 101 kPa, Liquid

Cc1ccc(C)c(C)c1 [1,2,4-trimethylbenzene]
[1]
Conditions	mass density [kg/m3]	surface tension liquid-gas [mN/m]
298.15 K	871.64 ± 0.48	29.29 ± 0.33
313.15 K	859.5 ± 0.49	27.67 ± 0.31

CCOC(=O)OCC [diethyl carbonate]
[1]
Conditions	mass density [kg/m3]
298.15 K	969.12 ± 0.21
313.15 K	952.15 ± 0.23

Cc1cc(C)cc(C)c1 [1,3,5-trimethylbenzene]
[1]
Conditions	mass density [kg/m3]	surface tension liquid-gas [mN/m]
298.15 K	861.04 ± 0.46	28.09 ± 0.31
313.15 K	848.73 ± 0.47	26.82 ± 0.3

Cc1cc(C)cc(C)c1 [1,3,5-trimethylbenzene] + CCOC(=O)OCC
[2]
Conditions	mass density [kg/m3]	surface tension liquid-gas [mN/m]
298.15 K, x2 = 0	861.04 ± 0.46	28.09 ± 0.31
298.15 K, x2 = 0.05	865.43 ± 0.45	–
298.15 K, x2 = 0.1	869.94 ± 0.43	27.71 ± 0.31
298.15 K, x2 = 0.15	874.61 ± 0.42	–
298.15 K, x2 = 0.1999	879.3 ± 0.41	27.37 ± 0.3
298.15 K, x2 = 0.2501	884.12 ± 0.4	–
298.15 K, x2 = 0.2999	889.01 ± 0.39	27.01 ± 0.3
298.15 K, x2 = 0.3498	893.96 ± 0.38	–
298.15 K, x2 = 0.3999	899.08 ± 0.37	26.76 ± 0.29
298.15 K, x2 = 0.4499	904.28 ± 0.35	–
298.15 K, x2 = 0.5006	909.64 ± 0.34	26.56 ± 0.29
298.15 K, x2 = 0.5497	914.93 ± 0.33	–
298.15 K, x2 = 0.6001	920.47 ± 0.32	–
298.15 K, x2 = 0.6498	926.07 ± 0.3	–
298.15 K, x2 = 0.7007	931.9 ± 0.29	–
298.15 K, x2 = 0.7495	937.62 ± 0.28	–
298.15 K, x2 = 0.8004	943.71 ± 0.26	–
298.15 K, x2 = 0.849	949.64 ± 0.25	–
298.15 K, x2 = 0.9001	956.06 ± 0.24	–
298.15 K, x2 = 0.9501	962.49 ± 0.23	–
313.15 K, x2 = 0	848.73 ± 0.47	26.82 ± 0.3
313.15 K, x2 = 0.0502	852.95 ± 0.46	–
313.15 K, x2 = 0.0997	–	26.36 ± 0.29
313.15 K, x2 = 0.1001	857.31 ± 0.45	–
313.15 K, x2 = 0.1497	861.7 ± 0.44	–
313.15 K, x2 = 0.1995	–	25.95 ± 0.29
313.15 K, x2 = 0.201	866.26 ± 0.42	–
313.15 K, x2 = 0.248	870.64 ± 0.41	–
313.15 K, x2 = 0.2987	875.33 ± 0.4	–
313.15 K, x2 = 0.2997	–	25.57 ± 0.28
313.15 K, x2 = 0.3417	879.45 ± 0.39	–
313.15 K, x2 = 0.4001	–	25.22 ± 0.28
313.15 K, x2 = 0.4009	885.2 ± 0.38	–
313.15 K, x2 = 0.4487	889.94 ± 0.37	–
313.15 K, x2 = 0.5001	–	24.93 ± 0.28
313.15 K, x2 = 0.5005	895.18 ± 0.36	–
313.15 K, x2 = 0.5501	900.3 ± 0.34	–
313.15 K, x2 = 0.5995	905.52 ± 0.33	–
313.15 K, x2 = 0.651	911.05 ± 0.32	–
313.15 K, x2 = 0.6995	916.4 ± 0.31	–
313.15 K, x2 = 0.7495	921.97 ± 0.29	–
313.15 K, x2 = 0.8004	927.84 ± 0.28	–
313.15 K, x2 = 0.8501	933.7 ± 0.27	–
313.15 K, x2 = 0.9001	939.69 ± 0.26	–
313.15 K, x2 = 0.9501	945.76 ± 0.24	–

COC(=O)OC [dimethyl carbonate] + Cc1cc(C)cc(C)c1
[2], x1 = 1
Conditions	mass density [kg/m3]
298.15 K	1062.97 ± 0.32
313.15 K	1044.63 ± 0.3

COC(=O)OC [dimethyl carbonate] + Cc1ccc(C)c(C)c1
[2], x1 = 1
Conditions	mass density [kg/m3]
298.15 K	1062.97 ± 0.32
313.15 K	1044.63 ± 0.3

CCOC(=O)OCC [diethyl carbonate] + Cc1cc(C)cc(C)c1
[2], x1 = 1
Conditions	mass density [kg/m3]
298.15 K	969.12 ± 0.21
313.15 K	952.15 ± 0.23

Cc1ccc(C)c(C)c1 [1,2,4-trimethylbenzene] + CCOC(=O)OCC
[2]
Conditions	mass density [kg/m3]	surface tension liquid-gas [mN/m]
298.15 K, x2 = 0	871.64 ± 0.48	29.29 ± 0.33
298.15 K, x2 = 0.0501	875.81 ± 0.47	–
298.15 K, x2 = 0.1005	880.1 ± 0.45	28.85 ± 0.32
298.15 K, x2 = 0.1497	884.28 ± 0.44	–
298.15 K, x2 = 0.1994	888.62 ± 0.43	28.41 ± 0.31
298.15 K, x2 = 0.2518	893.23 ± 0.41	–
298.15 K, x2 = 0.2998	897.55 ± 0.4	27.98 ± 0.31
298.15 K, x2 = 0.3499	902.17 ± 0.39	–
298.15 K, x2 = 0.4001	–	27.58 ± 0.3
298.15 K, x2 = 0.4004	906.89 ± 0.37	–
298.15 K, x2 = 0.4496	911.54 ± 0.36	–
298.15 K, x2 = 0.5	916.38 ± 0.35	27.23 ± 0.3
298.15 K, x2 = 0.5494	921.22 ± 0.33	–
298.15 K, x2 = 0.5997	926.24 ± 0.32	–
298.15 K, x2 = 0.6497	931.3 ± 0.31	–
298.15 K, x2 = 0.6998	936.41 ± 0.29	–
298.15 K, x2 = 0.7505	941.72 ± 0.28	–
298.15 K, x2 = 0.8001	947 ± 0.27	–
298.15 K, x2 = 0.8499	952.36 ± 0.25	–
298.15 K, x2 = 0.9	957.82 ± 0.24	–
298.15 K, x2 = 0.95	963.45 ± 0.23	–
313.15 K, x2 = 0	859.5 ± 0.49	27.67 ± 0.31
313.15 K, x2 = 0.0508	863.46 ± 0.48	–
313.15 K, x2 = 0.1	–	27.16 ± 0.3
313.15 K, x2 = 0.1005	867.43 ± 0.46	–
313.15 K, x2 = 0.1486	871.36 ± 0.45	–
313.15 K, x2 = 0.2002	–	26.69 ± 0.3
313.15 K, x2 = 0.2012	875.71 ± 0.44	–
313.15 K, x2 = 0.2507	879.88 ± 0.43	–
313.15 K, x2 = 0.3005	–	26.23 ± 0.29
313.15 K, x2 = 0.3007	884.17 ± 0.41	–
313.15 K, x2 = 0.352	888.61 ± 0.4	–
313.15 K, x2 = 0.3997	–	25.81 ± 0.29
313.15 K, x2 = 0.4006	892.94 ± 0.39	–
313.15 K, x2 = 0.4499	897.37 ± 0.38	–
313.15 K, x2 = 0.4981	901.79 ± 0.36	–
313.15 K, x2 = 0.5001	–	25.49 ± 0.28
313.15 K, x2 = 0.5498	906.6 ± 0.35	–
313.15 K, x2 = 0.597	911.06 ± 0.34	–
313.15 K, x2 = 0.6481	915.93 ± 0.32	–
313.15 K, x2 = 0.699	920.93 ± 0.31	–
313.15 K, x2 = 0.7499	925.98 ± 0.29	–
313.15 K, x2 = 0.8002	931.06 ± 0.28	–
313.15 K, x2 = 0.8473	935.87 ± 0.27	–
313.15 K, x2 = 0.9001	941.45 ± 0.26	–
313.15 K, x2 = 0.9499	946.74 ± 0.24	–
